Some test systems named below: MCF7; SNB-19; M14; ACHN; CCRF-CEM; TK-10; OVCAR-5; HCT-116; EKVX; HOP-62; SR; SF-268; NCI-H226; IGROV-1; SF-539; MOLT-4; HCT-15; HOP-92; PC-3; NCI-H460.
Assay in all cases: NCI tumour cell line growth inhibition, 48 h

Consider 11 molecules from ChEMBL document CHEMBL1201862, “PubChem BioAssay data set” (2004).

Where a name gives a salt, the structure may show the parent alone.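 96-well plates; 48 h exposure; 5 concentrations. Endpoints by linear interpolation between flanking doses. Not reached: highest tested concentration assigned. At the GI50, growth is halved.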 Calls of active or inactive are those of the source. Rule as the data show it: active = GI50 up to about 1.1 µM and inactive = higher.

Regarding `Cc1ccc(/C=N/Nc2cc(C)c3cccc(C)c3n2)s1`, the GI50 in the experiment with MCF7 is 4.11 µM (inactive); with SNB-19, 26.5 µM (inactive); in the experiment with M14, 4.33 µM (inactive); in the experiment with ACHN it was 16.5 µM (inactive); in the experiment with CCRF-CEM it was 4.43 µM (inactive); with TK-10, 14.7 µM (inactive). The GI50 in the experiment on OVCAR-5 was 9.91 µM (inactive); in the experiment with HCT-116, 2.82 µM (inactive); in the experiment on EKVX, 13.5 µM (inactive); in the experiment on HOP-62, 11.8 µM (inactive); in the experiment on SR, 2.71 µM (inactive); in the experiment with SF-268 it was 6.73 µM (inactive). Besides, the GI50 in the experiment on NCI-H226 is 9.02 µM (inactive); in the experiment on IGROV-1 it was 2.61 µM (inactive); in the experiment on SF-539, 13.9 µM (inactive); in the experiment with MOLT-4, 3.21 µM (inactive); in the experiment on HCT-15 it was 3.73 µM; in the experiment on HOP-92 it was 6.4 µM (inactive). For the same molecule, the GI50 in the experiment with PC-3 is 8.2 µM (inactive).
Regarding `CCCC(=O)OC1C(CO)OC(n2cc(F)c(=O)[nH]c2=O)C1F` (centres undefined), the GI50 in the experiment on MCF7 was 0.604 µM (active); in the experiment with ACHN, 44.1 µM (inactive); in the experiment with CCRF-CEM it was 3.91 µM (inactive); with TK-10, > 100 µM (inactive); with OVCAR-5 it was > 100 µM (inactive); in the experiment on HCT-116, 22.3 µM (inactive). Further, the GI50 was 67 µM (inactive) in the experiment with EKVX; 4.5 µM (inactive) with HOP-62; 5.41 µM (inactive) with SR; > 100 µM (inactive) with NCI-H226; 95.7 µM (inactive) in the experiment on IGROV-1; 1.67 µM (inactive) in the experiment on SF-539. The GI50 was > 100 µM (inactive) in the experiment on MOLT-4, greater than 100 µM in the experiment on HCT-15, > 100 µM (inactive) in the experiment on HOP-92 and 92.3 µM (inactive) with PC-3.
For the molecule `CN(/N=C\c1ccc2ccccc2c1)C1=NCCCCN1`, the GI50 in the experiment on MCF7 was 18.2 µM (inactive); with ACHN it was 33.7 µM (inactive); in the experiment on CCRF-CEM it was 23.3 µM (inactive); with TK-10, 20.2 µM (inactive); in the experiment with OVCAR-5 it was 36.5 µM (inactive); with HCT-116, 24.9 µM (inactive). Further, the GI50 in the experiment on EKVX is 19.7 µM (inactive); with HOP-62 it was 19.2 µM (inactive); in the experiment on NCI-H460, 17.2 µM (inactive); with SR it was 21.2 µM (inactive); with SF-268, 34.4 µM (inactive); with NCI-H226 it was 35.3 µM (inactive). The GI50 was 26.5 µM (inactive) in the experiment on IGROV-1; 21.7 µM (inactive) in the experiment with SF-539; 17.6 µM (inactive) in the experiment with MOLT-4; 30.6 µM with HCT-15; 0.124 µM (active) with HOP-92; 16.7 µM (inactive) with PC-3.
Regarding `CN(C)CC1CCC(CN(C)C)C1=O` (centres undefined), the GI50 in the experiment with MCF7 was 0.458 µM (active); in the experiment on SNB-19 it was > 100 µM (inactive); in the experiment on M14, 2.91 µM (inactive); in the experiment with ACHN, 4.7 µM (inactive); in the experiment with TK-10, 14.7 µM (inactive); with OVCAR-5, 9.73 µM (inactive). Also, the GI50 in the experiment on HCT-116 was 2.27 µM (inactive); in the experiment with EKVX it was 4.53 µM (inactive); with HOP-62, > 52.5 µM (inactive); in the experiment on NCI-H460, 20.8 µM (inactive); in the experiment with SR, 2.6 µM (inactive); in the experiment on SF-268, 19.5 µM (inactive). The GI50 in the experiment with NCI-H226 is 19.7 µM (inactive); with IGROV-1 it was 7.94 µM (inactive); with SF-539 it was 18.4 µM (inactive); in the experiment on MOLT-4 it was 0.594 µM (active); in the experiment with HCT-15, 1.43 µM; in the experiment on HOP-92, 2.24 µM (inactive). The GI50 in the experiment on PC-3 is 1.98 µM (inactive).
As for `CC(O)(Cc1ccccc1C#N)Cc1ccccc1C#N`, the GI50 with MCF7 was > 100 µM (inactive); in the experiment with SNB-19 it was > 100 µM (inactive); in the experiment on M14 it was > 100 µM (inactive); in the experiment with ACHN it was 88.5 µM (inactive); in the experiment on TK-10, > 100 µM (inactive); with OVCAR-5 it was > 100 µM (inactive). Besides, the GI50 was > 100 µM (inactive) in the experiment with HCT-116; > 100 µM (inactive) in the experiment on EKVX; > 100 µM (inactive) in the experiment with HOP-62; 73.6 µM (inactive) with NCI-H460; > 100 µM (inactive) in the experiment on SR; > 100 µM (inactive) in the experiment with SF-268. The GI50 in the experiment on NCI-H226 was 50 µM (inactive); in the experiment on IGROV-1, > 100 µM (inactive); in the experiment with SF-539 it was > 100 µM (inactive); in the experiment with MOLT-4, 28.6 µM (inactive); in the experiment on HCT-15, 79.3 µM; in the experiment with HOP-92, 95.5 µM (inactive). For the same molecule, the GI50 with PC-3 is 71.3 µM (inactive).
On to `CC1C/C(=N\N(C)C)C(C#N)(C#N)C1(C#N)C#N` (centres undefined), for which the GI50 with MCF7 was 16 µM (inactive); with SNB-19 it was 31.7 µM (inactive); in the experiment on M14 it was 12.2 µM (inactive); in the experiment with ACHN, 8.43 µM (inactive); in the experiment on CCRF-CEM, 0.91 µM (active); in the experiment with TK-10, 13.6 µM (inactive). In addition, the GI50 with OVCAR-5 was 21.6 µM (inactive); in the experiment on HCT-116, 9.48 µM (inactive); in the experiment on EKVX it was 22 µM (inactive); in the experiment with HOP-62, 18 µM (inactive); in the experiment with SR, 2.82 µM (inactive); in the experiment on SF-268 it was 15.6 µM (inactive). Also, the GI50 is 30.2 µM (inactive) in the experiment on NCI-H226; 20.6 µM (inactive) in the experiment on IGROV-1; 18.1 µM (inactive) in the experiment with SF-539; 2.63 µM (inactive) with MOLT-4; 4.81 µM with HCT-15; 4.63 µM (inactive) in the experiment on HOP-92. Further, in the experiment with PC-3, the GI50 was 20.8 µM (inactive).
With `OC1c2ccccc2CCC1CN1CCN(CCOC(c2ccc(F)cc2)c2ccc(F)cc2)CC1` (centres undefined), the GI50 with MCF7 is 14.5 µM (inactive); in the experiment on SNB-19, 31.6 µM (inactive); with M14, 10.9 µM (inactive); with ACHN it was 21.6 µM (inactive); in the experiment with CCRF-CEM, 0.145 µM (active); in the experiment on TK-10 it was 17 µM (inactive). Besides, the GI50 in the experiment on HCT-116 was 8.22 µM (inactive); with HOP-62, 20.5 µM (inactive); in the experiment with NCI-H460, 15.4 µM (inactive); in the experiment on SR it was 2.53 µM (inactive); with SF-268, 16.6 µM (inactive); with NCI-H226 it was 13.6 µM (inactive). Moreover, the GI50 with IGROV-1 is 17.9 µM (inactive); in the experiment on SF-539, 0.186 µM (active); with MOLT-4 it was 8.83 µM (inactive); in the experiment on HCT-15, 6.05 µM; with HOP-92, 9.16 µM (inactive); in the experiment on PC-3, 16.3 µM (inactive).
For `O=C(O)c1ccccc1C(=O)c1ccc2c(c1)Cc1ccccc1-2`, the GI50 in the experiment on MCF7 is > 100 µM (inactive); with SNB-19, > 100 µM (inactive); with M14, > 100 µM (inactive); with ACHN, 56.6 µM (inactive); with TK-10 it was 52.1 µM (inactive); in the experiment with OVCAR-5 it was > 100 µM (inactive). The GI50 in the experiment with HCT-116 was 73.5 µM (inactive); in the experiment with EKVX, 68.5 µM (inactive); in the experiment on HOP-62 it was > 100 µM (inactive); in the experiment on NCI-H460 it was 46.1 µM (inactive); in the experiment with SR, 91.6 µM (inactive); in the experiment on SF-268 it was > 100 µM (inactive). The GI50 in the experiment with NCI-H226 is 36.1 µM (inactive); with IGROV-1, > 100 µM (inactive); in the experiment with SF-539, > 100 µM (inactive); in the experiment on MOLT-4 it was > 100 µM (inactive); with HCT-15, 57.5 µM; in the experiment with HOP-92, > 100 µM (inactive). Besides, the GI50 in the experiment on PC-3 was 66.4 µM (inactive).
Consider `Brc1ccc(C2=NCSC(c3ccc(Br)cc3)=N2)cc1`, for which the GI50 was 32.2 µM (inactive) in the experiment on MCF7; 31.8 µM (inactive) in the experiment on SNB-19; 30.5 µM (inactive) in the experiment on M14; 21.7 µM (inactive) with ACHN; 17.6 µM (inactive) in the experiment with TK-10; 76 µM (inactive) in the experiment with OVCAR-5. The GI50 in the experiment with HCT-116 was 16.6 µM (inactive); in the experiment on EKVX it was 11.6 µM (inactive); in the experiment with HOP-62, 39.1 µM (inactive); in the experiment with NCI-H460 it was 18.4 µM (inactive); in the experiment on SR it was 22.2 µM (inactive); with SF-268, 53.3 µM (inactive). Further, the GI50 was 34.3 µM (inactive) with NCI-H226; 33.2 µM (inactive) in the experiment on IGROV-1; 31.5 µM (inactive) in the experiment with SF-539; 16.1 µM (inactive) in the experiment on MOLT-4; 28.2 µM with HCT-15; 37.7 µM (inactive) in the experiment on HOP-92. The GI50 in the experiment on PC-3 is 21.2 µM (inactive).
With `CN/C(=N\CCSCc1nc[nH]c1C)NC#N` [CIMETIDINE], the GI50 with MCF7, with SNB-19, in the experiment with M14, in the experiment on ACHN, in the experiment on CCRF-CEM and in the experiment with OVCAR-5 was > 100 µM (inactive) each time. In addition, the GI50 in the experiment with HCT-116 was > 100 µM (inactive); with EKVX, > 10 µM (inactive); with HOP-62 it was > 100 µM (inactive); in the experiment on NCI-H460, > 100 µM (inactive); with SR, > 100 µM (inactive); in the experiment on SF-268, > 100 µM (inactive). Besides, the GI50 in the experiment on NCI-H226 was > 100 µM (inactive); in the experiment on IGROV-1, > 100 µM (inactive); in the experiment with SF-539 it was > 100 µM (inactive); in the experiment on MOLT-4, > 100 µM (inactive); with HCT-15, greater than 100 µM; with HOP-92, > 100 µM (inactive). Moreover, the GI50 in the experiment with PC-3 is > 100 µM (inactive).
As to `CN1C[C@H](C(=O)N[C@]2(C)O[C@@]3(O)[C@@H]4CCCN4C(=O)[C@H](Cc4ccccc4)N3C2=O)C=C2c3cccc4[nH]cc(c34)C[C@H]21` [ERGOTAMINE TARTRATE], the GI50 in the experiment with MCF7 is 20.7 µM (inactive); in the experiment on SNB-19 it was 35.1 µM (inactive); in the experiment with M14, 22.3 µM (inactive); in the experiment with ACHN it was 21.8 µM (inactive); with CCRF-CEM, 20 µM (inactive); in the experiment with TK-10, 17.4 µM (inactive). The GI50 was 20.2 µM (inactive) in the experiment with OVCAR-5; 21 µM (inactive) in the experiment on HCT-116; 30.8 µM (inactive) with EKVX; 23.9 µM (inactive) with HOP-62; 16.1 µM (inactive) with SR; 13.2 µM (inactive) in the experiment with SF-268. For the same molecule, the GI50 in the experiment on NCI-H226 is 30.3 µM (inactive); with IGROV-1, 20 µM (inactive); in the experiment with SF-539, 12.1 µM (inactive); in the experiment with MOLT-4 it was 23.9 µM (inactive); in the experiment with HCT-15 it was 18.9 µM; with HOP-92, 16.9 µM (inactive). Also, in the experiment with PC-3, the GI50 was 18.3 µM (inactive).
